The values that follow come from publication doi:10.1101/2025.11.20.689572v1 (biorxiv, 2025).

Where two headings read alike, the source gives them in different places.

The target of experiment [1] is T1, 5-HT1D (Homo sapiens, UniProt P28221).
T1 construct: gene HTR1D; full-length receptor; HEK293 with TRUPATH sensors (function)
Put plainly: TRUPATH BRET2 G protein dissociation, HEK293. It counts as cell-based. The note with it: HBSS, […] HEPES pH […] °C; agonist mode.

Experiment [2] concerns the target T2, α2C (Homo sapiens, UniProt P18825).
T2 construct: gene ADRA2C; full-length receptor; HEK293 cell membranes
Put plainly: competitive radioligand binding, HEK293 membranes. The source says:
competitive radioligand binding, HEK293 membranes on α2C

Experiment [3] concerns the target T3, CHRM1 (Homo sapiens, UniProt P11229).
T3 sequence (P11229 1-460): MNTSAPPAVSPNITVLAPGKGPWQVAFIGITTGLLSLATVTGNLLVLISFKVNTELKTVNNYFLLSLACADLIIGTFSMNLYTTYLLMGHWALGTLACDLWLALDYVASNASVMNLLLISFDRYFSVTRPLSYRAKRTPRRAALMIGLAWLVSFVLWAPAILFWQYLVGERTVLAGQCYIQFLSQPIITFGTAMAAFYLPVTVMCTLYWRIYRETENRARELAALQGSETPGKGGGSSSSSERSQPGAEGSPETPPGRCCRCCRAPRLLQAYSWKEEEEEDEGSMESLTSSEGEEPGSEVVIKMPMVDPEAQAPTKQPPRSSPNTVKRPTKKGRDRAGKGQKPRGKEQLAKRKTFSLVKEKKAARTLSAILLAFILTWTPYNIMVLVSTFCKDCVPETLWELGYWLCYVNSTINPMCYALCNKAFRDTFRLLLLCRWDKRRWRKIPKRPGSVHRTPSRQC
The experiment in a line: cell-based. Set-up: species or system HEK293; BRET1 beta-arrestin2 recruitment, receptor-RLuc8 and mVenus-beta-arrestin2 with GRK2. The note with it: Assay=barr2, agonist mode, % of control agonist. From the text:
(§1) BRET1 assays followed prior methods.

Experiment [4] deals with T4, CHRM5 (Homo sapiens, UniProt P08912).
T4 sequence (P08912 1-532): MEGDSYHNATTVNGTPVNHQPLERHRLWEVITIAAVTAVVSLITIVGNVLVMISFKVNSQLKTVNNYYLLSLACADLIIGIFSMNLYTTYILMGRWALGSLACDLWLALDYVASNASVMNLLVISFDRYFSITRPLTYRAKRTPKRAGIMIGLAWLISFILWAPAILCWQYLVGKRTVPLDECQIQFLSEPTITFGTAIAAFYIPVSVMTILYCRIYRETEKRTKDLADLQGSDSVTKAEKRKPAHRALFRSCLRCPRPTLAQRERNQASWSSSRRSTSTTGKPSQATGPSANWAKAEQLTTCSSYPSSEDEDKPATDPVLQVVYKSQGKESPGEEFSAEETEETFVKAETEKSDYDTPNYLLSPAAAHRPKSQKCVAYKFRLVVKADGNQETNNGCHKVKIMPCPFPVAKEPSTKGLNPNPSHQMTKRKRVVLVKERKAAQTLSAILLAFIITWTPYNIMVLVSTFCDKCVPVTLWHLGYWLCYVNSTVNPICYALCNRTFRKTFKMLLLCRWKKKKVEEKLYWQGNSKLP
Put plainly: cell-based. Set-up: species or system HEK293; BRET1 beta-arrestin2 recruitment, receptor-RLuc8 and mVenus-beta-arrestin2 with GRK2. Conditions: Assay=barr2, agonist mode, % of control agonist.
Text: as §1

Experiment [5] deals with CHRM3 (Homo sapiens, UniProt P20309). Put plainly: cell-based. Set-up: species or system HEK293; BRET1 beta-arrestin2 recruitment, receptor-RLuc8 and mVenus-beta-arrestin2 with GRK2. Conditions: Assay=barr2, agonist mode, % of control agonist.
Text: as §1

Experiment [6] addresses T5, CHRM4 (Homo sapiens, UniProt P08173).
T5 sequence (P08173 1-479): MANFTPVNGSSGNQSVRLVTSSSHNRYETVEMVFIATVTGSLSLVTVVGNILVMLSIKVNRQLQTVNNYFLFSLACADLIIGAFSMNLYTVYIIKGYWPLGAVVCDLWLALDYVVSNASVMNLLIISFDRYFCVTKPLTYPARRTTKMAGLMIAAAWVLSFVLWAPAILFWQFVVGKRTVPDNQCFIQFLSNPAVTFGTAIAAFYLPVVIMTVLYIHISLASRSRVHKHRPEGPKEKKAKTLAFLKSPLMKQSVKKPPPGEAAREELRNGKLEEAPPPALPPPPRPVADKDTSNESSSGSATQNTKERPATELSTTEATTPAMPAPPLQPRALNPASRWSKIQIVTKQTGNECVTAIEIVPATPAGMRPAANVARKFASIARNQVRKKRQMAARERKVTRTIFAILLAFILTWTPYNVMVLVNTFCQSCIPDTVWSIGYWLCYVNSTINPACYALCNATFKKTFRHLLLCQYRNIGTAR
The experiment in a line: cell-based. Set-up: species or system HEK293; BRET1 beta-arrestin2 recruitment, receptor-RLuc8 and mVenus-beta-arrestin2 with GRK2. Conditions: Assay=barr2, agonist mode, % of control agonist.
Text: as §1

In experiment [7] the target is T6, M1 (Homo sapiens, UniProt P11229).
T6 construct: gene CHRM1; full-length receptor; HEK293 with TRUPATH sensors (function)
T6 sequence (P11229 1-460): T3 sequence (P11229 1-460)
Put plainly: TRUPATH BRET2 G protein dissociation, HEK293. It counts as cell-based. Conditions: HBSS, […] HEPES pH […] °C; agonist mode. For orientation: BRET reads energy transfer from a luciferase to a nearby fluorophore.

Experiment [8] addresses T7, 5-HT2C (Homo sapiens, UniProt P28335).
T7 construct: gene HTR2C; full-length receptor; HEK293 cell membranes
Put plainly: competitive radioligand binding, HEK293 membranes. From the text:
competitive radioligand binding, HEK293 membranes on 5-HT2C

The target in experiment [9] is T3, CHRM1. Put plainly: cell-based. Conditions: HTLA, Assay=Tango, agonist mode, % of control agonist. Also on record: PRESTO-Tango beta-arrestin2 recruitment, luciferase luminescence, concentration-response. As for the experimental part:
Off-target agonism across the human GPCRome was profiled using PRESTO-Tango, following established protocols with minor adaptations [10]–[12]. […] After ~6 h recovery, cells were transfected with 20 ng plasmid DNA per well and incubated overnight. The next day, 10 µL of test compound (prepared in DMEM + 1% dFBS) was added, and plates were incubated overnight. Media and compounds were removed, and 20 µL per well of Bright-Glo luciferase reagent diluted in assay buffer (Hank’s Balanced Salt Solution (HBSS), 20 mM HEPES, pH 7.4) was added. After 20 min at room temperature (dark), luminescence was recorded. Each plate included the dopamine D2 receptor (DRD2) stimulated with 100 nM quinpirole as a positive control. For the GPCRome screen, each receptor was tested in quadruplicate at 0 and 10 µM compound (final). Responses were expressed as fold change relative to the basal (0 µM) condition. Follow-up concentration–response assays were performed under identical conditions except that serial dilutions of compounds (maximum ~30 µM, final) were added to generate full concentration–response curves.

The mark [10] stands for this setting: HEK293, read-out: N-Desmethyl Xanomeline.

Chain of CHRM3 (P20309 whole entry): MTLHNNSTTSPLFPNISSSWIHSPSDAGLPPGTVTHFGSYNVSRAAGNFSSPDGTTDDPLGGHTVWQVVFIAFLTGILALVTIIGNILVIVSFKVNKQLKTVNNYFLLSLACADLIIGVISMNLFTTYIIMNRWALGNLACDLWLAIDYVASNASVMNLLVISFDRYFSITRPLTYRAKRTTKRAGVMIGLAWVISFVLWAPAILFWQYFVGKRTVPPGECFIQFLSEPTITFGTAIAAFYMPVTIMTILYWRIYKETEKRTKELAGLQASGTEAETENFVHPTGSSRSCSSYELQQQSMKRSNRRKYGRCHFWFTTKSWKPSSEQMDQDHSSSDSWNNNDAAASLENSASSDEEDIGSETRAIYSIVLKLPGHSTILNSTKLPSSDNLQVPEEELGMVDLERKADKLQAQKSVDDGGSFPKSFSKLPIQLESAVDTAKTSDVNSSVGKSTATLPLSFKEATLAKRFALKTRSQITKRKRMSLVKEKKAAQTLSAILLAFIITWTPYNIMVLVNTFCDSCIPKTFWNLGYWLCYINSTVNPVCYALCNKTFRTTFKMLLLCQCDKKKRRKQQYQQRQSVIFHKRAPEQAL
T7 sequence (P28335 33-458): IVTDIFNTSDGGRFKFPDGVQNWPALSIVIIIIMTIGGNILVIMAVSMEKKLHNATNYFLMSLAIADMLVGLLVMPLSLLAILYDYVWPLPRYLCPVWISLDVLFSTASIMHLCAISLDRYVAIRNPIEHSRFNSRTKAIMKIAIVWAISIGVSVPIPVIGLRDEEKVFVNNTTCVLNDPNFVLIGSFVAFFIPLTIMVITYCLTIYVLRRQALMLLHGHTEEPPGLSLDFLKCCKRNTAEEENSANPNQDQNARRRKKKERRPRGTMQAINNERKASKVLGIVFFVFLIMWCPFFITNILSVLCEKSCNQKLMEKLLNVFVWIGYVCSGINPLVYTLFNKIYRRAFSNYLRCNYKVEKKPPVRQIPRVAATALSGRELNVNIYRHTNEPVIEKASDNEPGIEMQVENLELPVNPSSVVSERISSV
T1 sequence (P28221 whole entry): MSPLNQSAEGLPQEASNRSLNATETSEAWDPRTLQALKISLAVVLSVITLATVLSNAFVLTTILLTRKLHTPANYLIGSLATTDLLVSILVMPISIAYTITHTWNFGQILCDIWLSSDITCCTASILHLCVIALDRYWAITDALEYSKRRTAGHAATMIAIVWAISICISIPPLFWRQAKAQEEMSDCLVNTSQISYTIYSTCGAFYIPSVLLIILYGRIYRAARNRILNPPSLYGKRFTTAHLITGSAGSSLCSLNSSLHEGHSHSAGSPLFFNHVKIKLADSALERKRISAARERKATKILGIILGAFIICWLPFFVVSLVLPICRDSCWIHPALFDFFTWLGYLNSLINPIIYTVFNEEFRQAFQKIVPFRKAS
T2 sequence (P18825 whole entry): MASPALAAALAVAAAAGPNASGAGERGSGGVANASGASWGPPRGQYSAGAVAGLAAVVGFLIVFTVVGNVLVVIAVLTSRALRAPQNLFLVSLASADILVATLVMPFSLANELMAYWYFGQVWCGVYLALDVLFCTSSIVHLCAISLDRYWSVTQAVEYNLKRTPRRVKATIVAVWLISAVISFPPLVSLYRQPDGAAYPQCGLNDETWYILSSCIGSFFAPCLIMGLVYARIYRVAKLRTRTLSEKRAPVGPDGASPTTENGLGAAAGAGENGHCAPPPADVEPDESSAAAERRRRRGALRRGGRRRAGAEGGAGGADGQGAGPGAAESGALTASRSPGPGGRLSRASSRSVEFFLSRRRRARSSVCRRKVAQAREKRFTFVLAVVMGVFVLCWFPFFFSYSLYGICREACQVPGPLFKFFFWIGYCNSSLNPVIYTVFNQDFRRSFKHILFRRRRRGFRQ

One may read the Ki as the dissociation constant of the complex between target and ligand, obtained from inhibition or displacement. A low value points to tighter binding. As to `CCCCCCOc1nsnc1C1=CCCNC1` [N-desmethylxanomeline], the EC50 result in experiment [1] was “full or partial agonists at 5-HT1D and 5-HT1A in a transducer-dependent fashion”; in experiment [7], “differential activation of M1-M5 muscarinic receptor transducers”. Also, the Ki is 0.209 µM in [2] and 0.324 µM in experiment [8]. The Emax came out at 71.3% in experiment [3] (setting [10]); 16.9% in [4] (setting [10]); 32.8% in experiment [5] (setting [10]); 20.5% in experiment [6] (setting [10]); 28.4% in experiment [9] (read-out: N-Desmethyl Xanomeline).

`CCCCCCOc1nsnc1C1=CCCN(C)C1` [Xanomeline]: the EC50 result in experiment [1] is “full or partial agonists at 5-HT1D and 5-HT1A in a transducer-dependent fashion”; in experiment [7], “xanomeline being more potent and efficacious than carbachol at M1 and M4 muscarinic receptors”. Besides, the figures for the Ki in [2] and in experiment [8] were 0.158 µM and 0.204 µM, respectively. Also, the Emax in experiment [3] (HEK293, read-out: Xanomeline) was 73.2%; in experiment [4] (HEK293, read-out: Xanomeline) it was 27.2%; in [5] (HEK293, read-out: Xanomeline), 21.7%; in [6] (HEK293, read-out: Xanomeline), 29.1%; in [9] (read-out: Xanomeline), 67%.
